This is an account of results in US10059694B2, “2-aminopyrimidine compound and pharmaceutical composition and use thereof” (Shanghai Institute of Materia Medica, Chinese Academy of …, priority 2014, dated 2018).

In assay [1] the target is T1, EGFR^wt (Homo sapiens, UniProt P00533).
T1 construct: purchased Millipore
Nature of the assay: kinase inhibitory activity test (ELISA), EGFR^WT. The class given is biochemical. Conditions: ATP 5 μM, 1 hour at 37° C. The method, boiled down: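 ELISA on poly(Glu,Tyr)4:1-coated plates; kinase reaction with 5 μM ATP (final) in 50 mM HEPES pH 7.4, 50 mM MgCl2, 5 mM MnCl2, 0.2 mM Na3VO4, 1 mM DTT, 1 h at 37° C. Phosphotyrosine detected via PY99/HRP and OPD at 490 nm; IC50 by four-parameter fit.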

Assay [2] addresses T2, IGF-1R (Homo sapiens, UniProt P08069).
T2 construct: purchased Millipore
Nature of the assay: kinase inhibitory activity test (ELISA), IGF-1R. It counts as biochemical. The settings on record: ATP 5 μM, 1 hour at 37° C. In a few lines: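 Poly(Glu,Tyr)4:1-coated plates; kinase reacted 1 h at 37 °C with 5 μM ATP (final) in HEPES pH 7.4 buffer with Mg2+/Mn2+. Phosphotyrosine detected by PY99 and HRP anti-mouse IgG with OPD at 490 nm; IC50 from four-parameter fit.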
In general terms: An ELISA detects its analyte on a solid surface through an enzyme-linked reagent.

Assay [3] deals with phosphorylation of EGFR^T790M/L858R, AKT and ERK in NCI-H1975 cells. Nature of the assay: Western blot, EGFR phosphorylation and downstream signaling in NCI-H1975 cells. The class given is cell-based, human. Conditions: FIG. 1. How it is done:
The tests were performed using conventional Western Blot (immunoblotting test), as follows. A certain number of A431 cells and NCI-H1975 cells in the logarithmic growth phase were inoculated on 6-well plate and adherent cultured overnight in the incubator. Replaced with serum-free medium and starved for 24 h, a certain concentration of compound was added and reacted for 2 h. 50 ng/mL of EGF stimulating factor was added and reacted for 10 min. The cells were lysed with lysate and samples were collected, and then the samples were taken for SDS-PAGE electrophoresis. After electrophoresis, the protein was transferred to a nitrocellulose membrane by a semi-dry transfer system. The nitrocellulose membrane was placed in a blocking solution (5% skimmed milk diluted with TBS containing 0.1% Tween 20) for 2 h at room temperature, and then incubated overnight at 4° C. in a primary antibody solution (diluted with TBS containing 0.1% Tween 20 by 1:500). It was washed for three times with TBS containing 0.1% Tween 20 for 15 min each time. The membrane was placed in a secondary antibody solution (horseradish peroxidase labeled goat anti-rabbit IgG, diluted with TBS containing 0.1% Tween 20 by 1:2000) and reacted for 1 h at room temperature. After washed for three times as above, the membrane was dyed with ECL plus reagent and photoed using image Quant LAS 4000 camera.
In general terms: Immunoblotting shows a protein as a band on a membrane.

T2 sequence (P08069 31-1367): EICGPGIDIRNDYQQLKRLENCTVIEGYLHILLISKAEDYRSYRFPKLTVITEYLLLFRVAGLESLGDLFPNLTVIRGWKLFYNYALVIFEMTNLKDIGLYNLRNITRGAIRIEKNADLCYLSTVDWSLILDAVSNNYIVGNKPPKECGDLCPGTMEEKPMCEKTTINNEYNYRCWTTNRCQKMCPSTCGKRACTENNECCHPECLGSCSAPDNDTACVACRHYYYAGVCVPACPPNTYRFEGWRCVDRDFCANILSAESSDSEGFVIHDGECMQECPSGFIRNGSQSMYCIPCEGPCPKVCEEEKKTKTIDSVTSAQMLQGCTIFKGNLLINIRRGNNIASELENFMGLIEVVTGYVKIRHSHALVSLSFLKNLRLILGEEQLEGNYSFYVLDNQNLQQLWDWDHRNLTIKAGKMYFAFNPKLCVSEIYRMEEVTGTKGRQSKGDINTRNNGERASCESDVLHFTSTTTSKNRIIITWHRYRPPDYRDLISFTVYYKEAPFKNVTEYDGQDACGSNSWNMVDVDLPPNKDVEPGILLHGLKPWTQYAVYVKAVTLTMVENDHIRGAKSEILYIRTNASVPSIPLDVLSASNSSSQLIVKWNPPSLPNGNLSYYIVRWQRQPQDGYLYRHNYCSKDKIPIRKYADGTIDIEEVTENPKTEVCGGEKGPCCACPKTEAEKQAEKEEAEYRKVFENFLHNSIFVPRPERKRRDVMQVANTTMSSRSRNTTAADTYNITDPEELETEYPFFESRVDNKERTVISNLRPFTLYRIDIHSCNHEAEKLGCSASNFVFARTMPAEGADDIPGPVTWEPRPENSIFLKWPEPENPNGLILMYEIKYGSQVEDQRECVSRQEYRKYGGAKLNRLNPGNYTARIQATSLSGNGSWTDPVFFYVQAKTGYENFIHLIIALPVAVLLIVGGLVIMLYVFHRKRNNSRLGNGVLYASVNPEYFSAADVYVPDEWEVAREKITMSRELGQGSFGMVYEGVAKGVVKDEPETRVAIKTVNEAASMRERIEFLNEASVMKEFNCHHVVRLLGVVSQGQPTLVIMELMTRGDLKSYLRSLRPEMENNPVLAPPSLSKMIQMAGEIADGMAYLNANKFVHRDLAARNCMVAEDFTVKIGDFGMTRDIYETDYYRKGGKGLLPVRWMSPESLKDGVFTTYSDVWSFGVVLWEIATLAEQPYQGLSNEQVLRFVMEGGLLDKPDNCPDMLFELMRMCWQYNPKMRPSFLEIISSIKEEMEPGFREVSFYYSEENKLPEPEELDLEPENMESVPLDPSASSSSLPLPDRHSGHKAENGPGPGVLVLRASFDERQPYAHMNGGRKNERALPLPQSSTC
T1 sequence (P00533 25-1210): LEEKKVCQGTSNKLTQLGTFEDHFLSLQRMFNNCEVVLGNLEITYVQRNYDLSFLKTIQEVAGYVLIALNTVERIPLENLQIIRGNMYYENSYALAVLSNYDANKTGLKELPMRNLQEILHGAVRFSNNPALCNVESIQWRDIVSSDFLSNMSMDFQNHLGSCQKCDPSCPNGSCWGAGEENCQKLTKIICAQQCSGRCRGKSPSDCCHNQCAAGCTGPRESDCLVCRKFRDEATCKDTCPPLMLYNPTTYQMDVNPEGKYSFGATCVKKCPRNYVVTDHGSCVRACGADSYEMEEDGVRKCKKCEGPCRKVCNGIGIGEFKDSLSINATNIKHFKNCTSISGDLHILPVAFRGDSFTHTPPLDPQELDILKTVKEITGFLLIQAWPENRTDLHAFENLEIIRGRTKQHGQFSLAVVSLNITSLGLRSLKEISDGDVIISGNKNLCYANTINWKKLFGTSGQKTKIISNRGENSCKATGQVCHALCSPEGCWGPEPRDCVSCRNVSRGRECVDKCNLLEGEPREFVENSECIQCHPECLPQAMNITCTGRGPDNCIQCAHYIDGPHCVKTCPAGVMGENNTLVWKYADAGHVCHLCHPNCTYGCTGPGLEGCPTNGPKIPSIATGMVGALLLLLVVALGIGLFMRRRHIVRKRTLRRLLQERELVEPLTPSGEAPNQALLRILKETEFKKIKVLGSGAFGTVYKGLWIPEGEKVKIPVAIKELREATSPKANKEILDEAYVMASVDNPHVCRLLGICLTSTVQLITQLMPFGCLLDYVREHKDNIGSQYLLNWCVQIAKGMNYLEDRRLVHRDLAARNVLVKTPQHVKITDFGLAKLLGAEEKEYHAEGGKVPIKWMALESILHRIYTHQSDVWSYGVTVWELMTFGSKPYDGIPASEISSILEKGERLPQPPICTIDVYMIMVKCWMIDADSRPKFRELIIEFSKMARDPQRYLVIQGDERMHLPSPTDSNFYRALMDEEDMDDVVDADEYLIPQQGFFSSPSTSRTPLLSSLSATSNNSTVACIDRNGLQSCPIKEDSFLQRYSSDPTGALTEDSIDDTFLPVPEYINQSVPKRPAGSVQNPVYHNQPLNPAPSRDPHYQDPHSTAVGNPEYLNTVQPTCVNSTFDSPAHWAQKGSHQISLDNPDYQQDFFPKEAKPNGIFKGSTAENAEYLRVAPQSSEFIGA

The term IC50 denotes the concentration that gives 50% inhibition. High values mean lower potency, low ones higher potency. For the molecule `C=CC(=O)Nc1cc(Nc2ncc(Cl)c(Nc3ccc4ccccc4c3)n2)c(OC)cc1N(C)CCN(C)C` [CCB120067, N-((5-((5-chloro-4-((naphthalen-2-yl)amino))pyrimidin-2-yl)amino)-2-((N-methyl-N-dimethylaminoethyl)amino)-4-methoxyphenyl)acrylamide], the IC50 in assay [1] worked out at 0.0094 µM; in assay [2], 0.0319 µM. For the same molecule, the “inhibition of phosphorylation of EGFR^T790M/L858R and activation of AKT and ERK” value in assay [3] (2 h compound, EGF 50 ng/mL 10 min) is reported as “significantly inhibit”. Further, the “inhibitory activity on phosphorylated EGFR^T790M/L858R, Akt and Erk compared with CO1686” value in assay [3] (CCB120067 at 1 nM) is “comparable or slightly better than that of CO1686 at 100 nM concentration”.
